Data as given in ChEMBL document CHEMBL1159267, “Barceloneic acid A, a new farnesyl-protein transferase inhibitor from a Phoma species” (J Nat Prod, 1995).
Active and inactive are the calls of the source. The rule behind the calls is not given here.

Columns and labels:
[1] = biological target: T1, Protein farnesyltransferase (Homo sapiens, UniProt P49354+P49356); assay: Inhibition of human recombinant FPTase up to ~300 uM by Ras farnesyl-protein-transferase assay; format: protein-complex assay
[2] = biological target: T1, Protein farnesyltransferase; assay: Inhibition of human recombinant FPTase by Ras farnesyl-protein-transferase assay; format: protein-complex assay

Activity [1] | IC50 [2] | SMILES
inactive |  | COc1cc(CO)c(Oc2cc(C)cc(OC)c2C(=O)O)c(OC)c1
inactive |  | COC(=O)c1c(OC)cc(C)cc1Oc1c(CO)cc(OC)cc1OC

Continued, molecule first:

SMILES | Activity [1] | IC50 [2]
COc1cc(O)c2c(c1)COC(=O)c1c(O)cc(C)cc1O2 | inactive | 
COc1cc(O)c(Oc2cc(C)cc(O)c2C(=O)O)c(CO)c1 [BARCELONEIC ACID A] |  | 40 µM
Cc1cc(O)c(C(=O)O)c(O)c1 | inactive | 
COc1cc(O)c(Oc2cc(C)cc(O)c2C(=O)O)c(C(=O)O)c1 | inactive | 
COc1cc(CO)c(Oc2cc(C)cc(O)c2C(=O)O)c(OC)c1 | inactive | 
